Patent publication US20180125993A1 (BEIJING COTIMES BIOTECH COMPANY LIMITED, priority 2014, published 2018)
Marks after values point to notes of the source that are not given here.

Experiments:
MIA-PaCa-2 [1] = assay: Human pancreatic cancer MIA-PaCa-2 subcutaneous model (34 days of treatment); settings: for Tumor regression: treatment groups
Procedure: (§2) Tumor cells (i.e., MIA-PaCa-2, WiDr, H2122, colo205) were inoculated in nude mice's flank at 5×10^6 cells per mouse. The mice were grouped when the average volume of tumors reached about 100˜200 mm^3. “QW”=weekly dose. “Q3d”=dosed every third day. “BiW”=biweekly.
(§3) The bodyweight and major/minor axis of the mice were measured twice a week, and the tumor volumes were calculated using the formula: Tumor volume=1/2×major axis×minor axis. […] “T” represents average tumor volume of the experimental group (cm^3), and “C” represents average tumor volume of the control group (cm^3). The animals were monitored at all times. The bodyweight and major/minor axis or mice were measured twice a week. When the experiments were concluded, mice were sacrificed and tumors were extracted and weighted.
(§4) Tumor volumes were represented with average±standard error. Data analysis was done using Spss16.0, One-Way ANOVA, LSD (homogeneity of variance) or Dunnett T3 (non-homogeneity of variance). […] P<0.05 represents significant difference.

MKN28 = assay: In vitro cytotoxic sensitivity of CTB006; format: cell-based, human; settings: MKN28, Stomach cancer
SW480 = assay: Cytotoxicity on human tumor cell lines (ATPLite Assay Kit); format: cell-based; settings: SW480, Colorectal cancer
Procedure: (§1) Eighteen human tumor cell lines were treated with 62.5, 125, 250, 500, or 1000 ng/mL HuCTB006 or different concentrations of chemotherapy drugs, which act as positive controls. […] The culture medium for SK-Hep-1, HepG2, HCT116, SW480, WiDr (1×NEAA), MIA-PaCa-2 (2.5% Horse serum) MDA-MB-231 (1 mM NaPyr, 1×MEM-NEAA, 1×MEM VITAMIN) was DMEM. The culture medium for COLO205, BXPC3 (2 mM glutamin, 10 mM HEPES), Panc2.03 (15FBS, 1 mM NaPyr, 1×MEM-NEAA, […], 10 mM HEPES), H2122, OVCAR3 (1 mM NaPyr, 10 ug/ml human insulin, 10 mM HEPES, 2.5 g/L glucose), Molt-4 (HEPES, 2.5 g/l glocose), Jurkat (HEPES, 2.5 g/l glocose) was RPMI-1640, the culture medium for SK-MES-1 was Eagle's MEM, the culture medium for 2-LMP and DY36T2 was IMEM, and the culture medium for SUM102 (5 ug/ml insulin) was F-12K. The cell viability was determined by ATPLite Assay Kit. If the IC50 value was lower than 62.5 ng/mL, the cells were treated with higher concentration of CTB006 in the second round of experiments to determine IC50 value.

MIA-PaCa-2 [2] = assay: as above; format: cell-based; settings: MIA-PaCa-2, Pancreatic cancer
Procedure: as §1

2-LMP = assay: as above; format: cell-based; settings: Breast cancer
Procedure: as §1

BXPC3 = assay: as above; format: cell-based; settings: BXPC3, Pancreatic cancer
Procedure: as §1

H2122 [3] = assay: as above; format: cell-based; settings: H2122, Lung cancer
Procedure: as §1

MDA-MB-231 = assay: as above; format: cell-based; settings: MDA-MB-231, Breast cancer
Procedure: as §1

Panc2.03 = assay: as above; format: cell-based; settings: Panc2.03, Pancreatic cancer
Procedure: as §1

HCT116 = assay: as above; format: cell-based; settings: HCT116, Colorectal cancer
Procedure: as §1

A549 = assay: In vitro cytotoxic sensitivity of CTB006; format: cell-based, human; settings: A549, Lung cancer
NUGC3 = assay: In vitro cytotoxic sensitivity of CTB006; format: cell-based, human; settings: NUGC3, Stomach cancer
SW620 = assay: In vitro cytotoxic sensitivity of CTB006; format: cell-based, human; settings: SW620, Colorectal cancer
HCC1954 = assay: In vitro cytotoxic sensitivity of CTB006; format: cell-based, human; settings: HCC1954, Breast cancer
MDA-MB-468 = assay: In vitro cytotoxic sensitivity of CTB006; format: cell-based, human; settings: MDA-MB-468, Breast cancer
A427 = assay: In vitro cytotoxic sensitivity of CTB006; format: cell-based, human; settings: A427, Lung cancer
BGC803 = assay: In vitro cytotoxic sensitivity of CTB006; format: cell-based, human; settings: BGC803, Stomach cancer
H2122 [4] = assay: Human lung cancer H2122 subcutaneous model (Day 38 after treatment); settings: for Tumor regression: treatment groups
Procedure: as §2, §3, §4

PANC-1 = assay: In vitro cytotoxic sensitivity of CTB006; format: cell-based, human; settings: PANC-1, Pancreatic cancer
BGC823 = assay: In vitro cytotoxic sensitivity of CTB006; format: cell-based, human; settings: BGC823, Stomach cancer
[5] = HuCTB006 0.2 mg/kg i.v. QW × 6W
[6] = HuCTB006 0.6 mg/kg i.v. QW × 6W
[7] = repeated experiment, HuCTB006 0.2 mg/kg
[8] = repeated experiment, HuCTB006 0.6 mg/kg
[9] = repeated experiment, HuCTB006 1 mg/kg
[10] = repeated experiment, HuCTB006 10 mg/kg
[11] = HuCTB006 0.2 mg/kg i.v. QW × 6W, 0.2 mg/kg
[12] = HuCTB006 0.2 mg/kg i.v. QW × 6W, listed as HUCTB006, 0.2 mg/kg
[13] = HuCTB006 0.6 mg/kg i.v. QW × 6W, 0.6 mg/kg
[14] = HuCTB006 0.6 mg/kg i.v. QW × 6W, listed as HUCTB006, 0.6 mg/kg
[15] = HuCTB006 1.8 mg/kg i.v. QW × 6W
[16] = HuCTB006 1.8 mg/kg i.v. QW × 6W, 1.8 mg/kg
[17] = HuCTB006 1.8 mg/kg i.v. QW × 6W, listed as HUCTB006, 1.8 mg/kg
[18] = HuCTB006 5.4 mg/kg i.v. QW × 6W
[19] = HuCTB006 5.4 mg/kg i.v. QW × 6W, 5.4 mg/kg
[20] = HuCTB006 5.4 mg/kg i.v. QW × 6W, listed as HUCTB006, 5.4 mg/kg
[21] = repeated experiment, HuCTB006 1.8 mg/kg
[22] = repeated experiment, HuCTB006 5.4 mg/kg

## HuCTB006: Monospecific humanized chimeric monoclonal antibody directed to TRAIL-R2 receptor; heavy chain SEQ ID NO: 14, light chain SEQ ID NO: 12
MIA-PaCa-2 [1]; [5]
  T/C % (Calculated using tumor volumes): 52.01%
  Time of tumor volume changed significantly: 13 days after first treatment
  Tumor Volume Mean ± SEM: 1.76 ± 0.15 cm^3
  Tumor weight Mean ± SEM: 0.79 ± 0.07 g
MIA-PaCa-2 [1]; [6]
  T/C % (Calculated using tumor volumes): 38.43%
  Tumor Volume Mean ± SEM: 1.27 ± 0.43 cm^3
  Tumor weight Mean ± SEM: 0.54 ± 0.21 g
MIA-PaCa-2 [1]; HuCTB006 1 mg/kg i.v. QW × 6W
  T/C % (Calculated using tumor volumes): 24.02%
  Tumor Volume Mean ± SEM: 0.88 ± 0.35 cm^3
  Tumor weight Mean ± SEM: 0.37 ± 0.19 g
MIA-PaCa-2 [1]; HuCTB006 10 mg/kg i.v. QW × 6W
  T/C % (Calculated using tumor volumes): 23.01%
  Time of tumor volume changed significantly: 7^2 days after first treatment
  Tumor Volume Mean ± SEM: 0.76 ± 0.22 cm^3
  Tumor weight Mean ± SEM: 0.19 ± 0.08 g
MIA-PaCa-2 [1]; first experiment
  Tumor regression: some animals of HuCTB006 groups showed tumor regression
MIA-PaCa-2 [1]; repeated experiment
  Tumor regression: some animals of HuCTB006 groups also showed tumor regression
MIA-PaCa-2 [1]; [7]
  TGI calculated based on the tumor volume: 59.52%
  TGI calculated based on the tumor weight: 72.38%
MIA-PaCa-2 [1]; [8]
  TGI calculated based on the tumor volume: 85.35%
  TGI calculated based on the tumor weight: 91.39%
MIA-PaCa-2 [1]; [9]
  TGI calculated based on the tumor volume: 87.52%
  TGI calculated based on the tumor weight: 92.02%
MIA-PaCa-2 [1]; [10]
  TGI calculated based on the tumor volume: 58.99%
  TGI calculated based on the tumor weight: 71.93%
MIA-PaCa-2 [1]; treatment groups over the time
  Bodyweights of mice: slow increase over the time
MKN28
  In vitro cytotoxic sensitivity of CTB006: Non-responder
SW480
  In vitro cytotoxic sensitivity of CTB006: Partial-responder
MIA-PaCa-2 [2]
  In vitro cytotoxic sensitivity of CTB006: Responder
2-LMP
  In vitro cytotoxic sensitivity of CTB006: Responder
BXPC3
  In vitro cytotoxic sensitivity of CTB006: Responder
H2122 [3]
  In vitro cytotoxic sensitivity of CTB006: Responder
MDA-MB-231
  In vitro cytotoxic sensitivity of CTB006: Responder
Panc2.03
  In vitro cytotoxic sensitivity of CTB006: Partial-responder
HCT116
  In vitro cytotoxic sensitivity of CTB006: Responder
A549
  In vitro cytotoxic sensitivity of CTB006: Non-responder
NUGC3
  In vitro cytotoxic sensitivity of CTB006: Partial-responder
SW620
  In vitro cytotoxic sensitivity of CTB006: Non-responder
HCC1954
  In vitro cytotoxic sensitivity of CTB006: Non-responder
MDA-MB-468
  In vitro cytotoxic sensitivity of CTB006: Non-responder
A427
  In vitro cytotoxic sensitivity of CTB006: Non-responder
BGC803
  In vitro cytotoxic sensitivity of CTB006: Non-responder
H2122 [4]; [5]
  T/C % (Calculated using tumor volumes): 92.13%
  Time of tumor volume changed significantly: 8
  Tumor Volume Mean ± SEM: 1.85 ± 0.15 cm^3
  Tumor weight Mean ± SEM: 1.54 ± 0.09 g
H2122 [4]; [11]
  TGI (Calculated using tumor volumes): 11.56%
  TGI (Calculated using tumor weight): 6.45%
H2122 [4]; [12]
  TGI (Calculated using tumor volumes): 11.56%
  TGI (Calculated using tumor weight): 6.45%^5
H2122 [4]; [6]
  T/C % (Calculated using tumor volumes): 50.75%
  Tumor Volume Mean ± SEM: 1.02 ± 0.31 cm^3
  Tumor weight Mean ± SEM: 0.89 ± 0.29 g
H2122 [4]; [13]
  TGI (Calculated using tumor volumes): 51.06%
  TGI (Calculated using tumor weight): 45.66%
H2122 [4]; [14]
  TGI (Calculated using tumor volumes): 51.06%^3
  TGI (Calculated using tumor weight): 45.66%^4
H2122 [4]; [15]
  T/C % (Calculated using tumor volumes): 6.46%
  Tumor Volume Mean ± SEM: 0.16 ± 0.16 cm^3
  Tumor weight Mean ± SEM: 0.12 ± 0.12 g
H2122 [4]; [16]
  TGI (Calculated using tumor volumes): 92.08%
  TGI (Calculated using tumor weight): 92.48%
H2122 [4]; [17]
  TGI (Calculated using tumor volumes): 92.08%**^2
  TGI (Calculated using tumor weight): 92.48%*
H2122 [4]; [18]
  T/C % (Calculated using tumor volumes): 5.54%
  Tumor Volume Mean ± SEM: 0.18 ± 0.18 cm^3
  Tumor weight Mean ± SEM: 0.19 ± 0.18 g
H2122 [4]; [19]
  TGI (Calculated using tumor volumes): 91.23%
  TGI (Calculated using tumor weight): 8.62%
H2122 [4]; [20]
  TGI (Calculated using tumor volumes): 91.23%**
  TGI (Calculated using tumor weight): 88.62%*^1
H2122 [4]; Taxol group, HuCTB006 0.2 mg/kg group
  Bodyweights: decreased, but were maintained at an acceptable level
H2122 [4]; first experiment
  Tumor regression: some animals of HuCTB006 treatment groups showed tumor regression
H2122 [4]; repeated experiment
  Tumor regression: some animals of CTB006 treatment groups showed tumor regression
H2122 [4]; [7]
  TGI (Calculated using tumor volume): 35.26%
  TGI (Calculated using tumor weight): 32.46%
H2122 [4]; [8]
  TGI (Calculated using tumor volume): 67.66%
  TGI (Calculated using tumor weight): 65.94%
H2122 [4]; [21]
  TGI (Calculated using tumor volume): 60.12%
  TGI (Calculated using tumor weight): 64.21%
H2122 [4]; [22]
  TGI (Calculated using tumor volume): 91.69%
  TGI (Calculated using tumor weight): 92.25%
PANC-1
  In vitro cytotoxic sensitivity of CTB006: Non-responder
BGC823
  In vitro cytotoxic sensitivity of CTB006: Partial-responder
